Active and inactive are the calls of the source. The calls are words filed in the database; no cut-off is given here.

The nature of test [1]: Induction of mitotic arrest in human RPE cells over expressing H2B-GFP-fused MYC assessed as minimum effective concentration for polyploidy measured after 24 hrs by fluorescence microscopy. Format: functional. Particulars: read-out: MEC.
A short description of test [2]: Induction of mitotic arrest in human RPE cells over expressing H2B-GFP-fused MYC assessed as polyploidy cells in the interphase cell population at 40 uM measured after 72 hrs by fluorescence microscopy relative to control. Format: functional.
A short description of test [3]: Induction of mitotic arrest in human RPE cells over expressing H2B-GFP-fused MYC assessed as increase in polyploidy at 40 uM measured after 24 to 72 hrs by fluorescence microscopy. Format: functional. Particulars: time 24-72 hrs.
A further test concerns NCI-H596. In words: Cytotoxicity against human NCI-H596 cells assessed as reduction in cell viability measured after 6 days by MTT assay. Format: functional, cell-based. Particulars: time 6.0 day. For orientation: Tetrazolium assays rely on reduction of a dye to a coloured formazan, in cell work by metabolically active cells.
The next test relates to A549. In words: Cytotoxicity against human A549 cells assessed as reduction in cell viability measured after 6 days by MTT assay. Format: functional, cell-based. Particulars: time 6.0 day.
Test [4] relates to DU-145. In words: Cytotoxicity against human DU-145 cells assessed as reduction in cell proliferation at 10 uM measured after 3 days by MTT assay. Format: functional, cell-based. The note with it: time 3.0 day.
In test [5] the test system is NCI-N87. In words: Cytotoxicity against human NCI-N87 cells assessed as reduction in cell viability measured after 6 days by MTT assay. Format: functional, cell-based. Particulars: time 6.0 day.
The subject of test [6] is NCI-H23. In words: Cytotoxicity against human NCI-H23 cells assessed as reduction in cell viability measured after 6 days by MTT assay. Format: functional, cell-based. Particulars: time 6.0 day.
The subject of test [7] is MDA-MB-231. In words: Cytotoxicity against human MDA-MB-231 cells assessed as reduction in cell proliferation at 10 uM measured after 3 days by MTT assay. Format: functional, cell-based. Particulars: time 3.0 day.
Test [8] concerns NCI-N87. In words: Cytotoxicity against human NCI-N87 cells assessed as reduction in cell proliferation at 10 uM measured after 3 days by MTT assay. Format: functional, cell-based. The note with it: time 3.0 day.
The subject of test [9] is MDA-MB-231. In words: Cytotoxicity against human MDA-MB-231 cells assessed as reduction in cell viability measured after 6 days by MTT assay. Format: functional, cell-based. Particulars: time 6.0 day.
Test [10] concerns HCT-116. In words: Cytotoxicity against human HCT-116 cells assessed as reduction in cell proliferation at 10 uM measured after 3 days by MTT assay. Format: functional, cell-based. Particulars: time 3.0 day.
The test system of test [11] is NCI-H23. In words: Cytotoxicity against human NCI-H23 cells assessed as reduction in cell proliferation at 10 uM measured after 3 days by MTT assay. Particulars: time 3.0 day. Format: functional, cell-based.
Test [12] in a line: Induction of mitotic arrest in human RPE cells over expressing H2B-GFP-fused MYC assessed as minimum effective concentration for polyploidy measured after 24 to 72 hrs by fluorescence microscopy. Format: functional. Particulars: time 24-72 hrs, read-out: MEC.
In test [13] the target is T1, Aurora kinase A (Homo sapiens) (UniProt O14965).
T1 sequence (whole entry): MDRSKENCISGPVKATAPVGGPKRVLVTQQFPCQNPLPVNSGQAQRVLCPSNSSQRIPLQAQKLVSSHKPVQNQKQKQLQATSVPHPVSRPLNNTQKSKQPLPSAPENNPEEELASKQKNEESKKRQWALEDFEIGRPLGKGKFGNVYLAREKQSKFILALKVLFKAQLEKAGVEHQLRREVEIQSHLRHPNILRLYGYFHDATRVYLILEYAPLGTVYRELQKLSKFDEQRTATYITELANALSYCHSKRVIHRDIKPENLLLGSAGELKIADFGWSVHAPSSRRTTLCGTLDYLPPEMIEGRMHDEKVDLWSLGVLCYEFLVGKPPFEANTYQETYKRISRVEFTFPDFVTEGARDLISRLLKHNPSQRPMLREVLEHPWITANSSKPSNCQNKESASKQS
In words: Inhibition of AURKA in human RPE cells over expressing H2B-GFP-fused MYC assessed as reduction in autophosphorylation at Thr288 residues at 0.64 uM measured after 6 hrs by immunofluorescence assay. Format: cell-based.

Test [14] relates to DU-145. In words: Cytotoxicity against human DU-145 cells assessed as reduction in cell viability measured after 6 days by MTT assay. Format: functional, cell-based. The note with it: time 6.0 day.
The subject of another test is NCI-H460. In words: Cytotoxicity against human NCI-H460 cells assessed as reduction in cell viability measured after 6 days by MTT assay. Format: functional, cell-based. Particulars: time 6.0 day.
Test [15] has as its system HCT-116. In words: Cytotoxicity against human HCT-116 cells assessed as reduction in cell viability measured after 6 days by MTT assay. Format: functional, cell-based. Particulars: time 6.0 day.
The next test deals with Calu-6. In words: Cytotoxicity against human Calu-6 cells assessed as reduction in cell viability measured after 6 days by MTT assay. Format: functional, cell-based. Particulars: time 6.0 day.

On to `COC(=O)C1=C(O)c2ccccc2NC(=O)C1`, for which the minimal effective concentration in test [1] was found to be 40 µM. In test [2], the Activity was 50%.

For the compound `COC(=O)C1=C(O)c2ccccc2N(Cc2ccc(OC)c(F)c2)C(=O)C1`, the Activity in test [3] came out at 70%. Moreover, the outcome with NCI-H596, in the test on A549, with DU-145 [4], with NCI-N87 [5], in the test on NCI-H23 [6] and with MDA-MB-231 [7] was Active. Further, the outcome in the test with NCI-N87 [8], with MDA-MB-231 [9], in the test with HCT-116 [10], in the test on NCI-H23 [11], with DU-145 [14] and in the test on NCI-H460 was Active. The outcome in the test on HCT-116 [15] and in the test with Calu-6 was Active. Moreover, in [12], the minimal effective concentration worked out at 0.039 µM. Besides, the inhibition result in test [13] is “Active”.

The record behind these values is ChEMBL document CHEMBL5120932, “Discovery and Optimization of Seven-Membered Lactam-Based Compounds to Phenocopy the Inhibition of the Aurora Kinase B” (ACS Med Chem Lett, 2022).
